Common to all, as to assay: Eurofins kinase panel
Holding throughout (assay type): biochemical
Conditions in all cases: read-out: Inhibition rate (%)

The target in one assay is T1, PKD3(h) (Homo sapiens, UniProt O94806).
T1 construct: purchased Eurofins (KinaseProfiler)
T1 sequence (O94806 1-890): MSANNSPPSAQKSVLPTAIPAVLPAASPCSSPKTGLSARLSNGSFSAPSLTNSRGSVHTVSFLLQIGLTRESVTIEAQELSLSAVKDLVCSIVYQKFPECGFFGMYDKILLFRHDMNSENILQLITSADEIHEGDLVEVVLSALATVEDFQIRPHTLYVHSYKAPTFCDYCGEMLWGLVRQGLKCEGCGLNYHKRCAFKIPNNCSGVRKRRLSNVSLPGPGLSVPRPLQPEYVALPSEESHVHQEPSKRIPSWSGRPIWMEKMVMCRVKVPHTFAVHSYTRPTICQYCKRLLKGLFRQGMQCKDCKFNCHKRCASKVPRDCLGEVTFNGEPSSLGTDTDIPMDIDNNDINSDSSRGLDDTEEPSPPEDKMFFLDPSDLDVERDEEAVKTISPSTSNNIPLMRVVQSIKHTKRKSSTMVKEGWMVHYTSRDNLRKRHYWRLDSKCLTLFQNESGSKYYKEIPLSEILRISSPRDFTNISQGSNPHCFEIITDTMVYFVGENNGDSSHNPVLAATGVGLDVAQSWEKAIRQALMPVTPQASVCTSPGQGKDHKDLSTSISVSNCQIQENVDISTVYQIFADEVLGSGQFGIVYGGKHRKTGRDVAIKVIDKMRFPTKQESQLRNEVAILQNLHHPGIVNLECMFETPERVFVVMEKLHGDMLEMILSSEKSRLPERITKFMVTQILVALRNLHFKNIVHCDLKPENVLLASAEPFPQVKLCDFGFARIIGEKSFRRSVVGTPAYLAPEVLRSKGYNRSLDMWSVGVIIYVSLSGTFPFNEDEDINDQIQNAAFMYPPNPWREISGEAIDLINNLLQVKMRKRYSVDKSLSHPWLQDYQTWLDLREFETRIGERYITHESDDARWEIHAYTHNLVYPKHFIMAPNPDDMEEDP

The target in assay [1] is T2, PI3 Kinase (p110α(H1047R)/p85α)(h) (Homo sapiens, UniProt P42336, H1047R).
T2 construct: purchased Eurofins (KinaseProfiler)
T2 sequence (P42336 whole entry H1047R): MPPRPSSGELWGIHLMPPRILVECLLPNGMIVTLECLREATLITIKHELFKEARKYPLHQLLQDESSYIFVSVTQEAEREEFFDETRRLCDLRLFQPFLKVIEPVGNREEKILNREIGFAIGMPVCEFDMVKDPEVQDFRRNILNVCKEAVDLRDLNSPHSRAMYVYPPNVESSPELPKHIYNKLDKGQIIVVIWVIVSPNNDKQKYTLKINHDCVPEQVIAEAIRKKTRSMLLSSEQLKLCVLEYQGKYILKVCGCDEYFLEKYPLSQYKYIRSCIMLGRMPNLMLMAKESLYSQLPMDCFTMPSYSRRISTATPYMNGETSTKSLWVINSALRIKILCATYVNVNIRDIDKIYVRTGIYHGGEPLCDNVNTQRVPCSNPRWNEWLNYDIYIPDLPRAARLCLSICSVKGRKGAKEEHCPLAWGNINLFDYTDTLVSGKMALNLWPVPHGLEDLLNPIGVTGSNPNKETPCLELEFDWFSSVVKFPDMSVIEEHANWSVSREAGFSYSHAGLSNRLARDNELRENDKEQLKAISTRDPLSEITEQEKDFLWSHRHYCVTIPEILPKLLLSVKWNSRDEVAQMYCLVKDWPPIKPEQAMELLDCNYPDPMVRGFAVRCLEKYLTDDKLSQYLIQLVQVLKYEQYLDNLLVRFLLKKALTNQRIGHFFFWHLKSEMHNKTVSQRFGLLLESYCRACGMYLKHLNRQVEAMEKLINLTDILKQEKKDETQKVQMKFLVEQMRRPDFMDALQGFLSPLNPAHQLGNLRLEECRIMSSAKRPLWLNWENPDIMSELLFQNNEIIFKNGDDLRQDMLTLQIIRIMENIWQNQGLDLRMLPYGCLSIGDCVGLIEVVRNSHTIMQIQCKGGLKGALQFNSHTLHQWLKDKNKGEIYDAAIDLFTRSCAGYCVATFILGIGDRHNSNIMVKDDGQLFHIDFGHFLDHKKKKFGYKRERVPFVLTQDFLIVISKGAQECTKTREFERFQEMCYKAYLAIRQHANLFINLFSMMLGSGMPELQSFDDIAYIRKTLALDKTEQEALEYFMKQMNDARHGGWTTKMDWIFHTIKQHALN
T2 sequence (P27986 whole entry partner): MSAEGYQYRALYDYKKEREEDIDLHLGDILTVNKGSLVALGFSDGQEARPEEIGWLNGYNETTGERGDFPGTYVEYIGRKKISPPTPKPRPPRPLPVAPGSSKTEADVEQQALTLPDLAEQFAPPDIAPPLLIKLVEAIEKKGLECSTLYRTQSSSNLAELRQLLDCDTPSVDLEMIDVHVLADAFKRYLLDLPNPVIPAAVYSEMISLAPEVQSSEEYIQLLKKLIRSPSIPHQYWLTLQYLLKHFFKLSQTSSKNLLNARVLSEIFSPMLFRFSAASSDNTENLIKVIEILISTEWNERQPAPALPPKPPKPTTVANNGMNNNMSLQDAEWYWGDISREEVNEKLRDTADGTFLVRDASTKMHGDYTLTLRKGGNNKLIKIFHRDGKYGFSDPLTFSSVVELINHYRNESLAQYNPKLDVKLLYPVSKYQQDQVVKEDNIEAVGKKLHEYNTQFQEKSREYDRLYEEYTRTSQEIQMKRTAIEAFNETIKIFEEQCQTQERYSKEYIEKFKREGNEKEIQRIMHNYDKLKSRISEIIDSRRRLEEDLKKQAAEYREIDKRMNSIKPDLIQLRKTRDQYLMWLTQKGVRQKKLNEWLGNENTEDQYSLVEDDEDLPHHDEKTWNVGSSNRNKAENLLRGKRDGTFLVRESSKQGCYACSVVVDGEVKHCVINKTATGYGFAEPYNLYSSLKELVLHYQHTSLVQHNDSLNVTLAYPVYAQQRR

The next assay concerns the target T3, NEK2(h) (Homo sapiens, UniProt P51955).
T3 construct: purchased Eurofins (KinaseProfiler)
T3 sequence (P51955 1-445): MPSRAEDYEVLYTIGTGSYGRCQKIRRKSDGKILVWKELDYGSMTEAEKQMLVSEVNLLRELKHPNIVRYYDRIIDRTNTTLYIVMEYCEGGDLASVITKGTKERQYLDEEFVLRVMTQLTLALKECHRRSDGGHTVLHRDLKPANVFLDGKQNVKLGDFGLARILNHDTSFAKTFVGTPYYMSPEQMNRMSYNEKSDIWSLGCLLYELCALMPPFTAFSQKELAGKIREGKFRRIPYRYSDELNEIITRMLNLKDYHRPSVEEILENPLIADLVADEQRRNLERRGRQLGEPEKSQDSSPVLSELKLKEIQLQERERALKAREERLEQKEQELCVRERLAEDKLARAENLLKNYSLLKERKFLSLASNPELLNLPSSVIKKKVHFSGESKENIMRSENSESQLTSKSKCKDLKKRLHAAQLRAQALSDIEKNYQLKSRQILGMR

A further assay addresses T4, Yes(h) (Homo sapiens, UniProt P07947).
T4 construct: purchased Eurofins (KinaseProfiler)

The target of the next assay is T5, Flt3(h) (Homo sapiens, UniProt P36888).
T5 construct: purchased Eurofins (KinaseProfiler)
T5 sequence (P36888 27-993): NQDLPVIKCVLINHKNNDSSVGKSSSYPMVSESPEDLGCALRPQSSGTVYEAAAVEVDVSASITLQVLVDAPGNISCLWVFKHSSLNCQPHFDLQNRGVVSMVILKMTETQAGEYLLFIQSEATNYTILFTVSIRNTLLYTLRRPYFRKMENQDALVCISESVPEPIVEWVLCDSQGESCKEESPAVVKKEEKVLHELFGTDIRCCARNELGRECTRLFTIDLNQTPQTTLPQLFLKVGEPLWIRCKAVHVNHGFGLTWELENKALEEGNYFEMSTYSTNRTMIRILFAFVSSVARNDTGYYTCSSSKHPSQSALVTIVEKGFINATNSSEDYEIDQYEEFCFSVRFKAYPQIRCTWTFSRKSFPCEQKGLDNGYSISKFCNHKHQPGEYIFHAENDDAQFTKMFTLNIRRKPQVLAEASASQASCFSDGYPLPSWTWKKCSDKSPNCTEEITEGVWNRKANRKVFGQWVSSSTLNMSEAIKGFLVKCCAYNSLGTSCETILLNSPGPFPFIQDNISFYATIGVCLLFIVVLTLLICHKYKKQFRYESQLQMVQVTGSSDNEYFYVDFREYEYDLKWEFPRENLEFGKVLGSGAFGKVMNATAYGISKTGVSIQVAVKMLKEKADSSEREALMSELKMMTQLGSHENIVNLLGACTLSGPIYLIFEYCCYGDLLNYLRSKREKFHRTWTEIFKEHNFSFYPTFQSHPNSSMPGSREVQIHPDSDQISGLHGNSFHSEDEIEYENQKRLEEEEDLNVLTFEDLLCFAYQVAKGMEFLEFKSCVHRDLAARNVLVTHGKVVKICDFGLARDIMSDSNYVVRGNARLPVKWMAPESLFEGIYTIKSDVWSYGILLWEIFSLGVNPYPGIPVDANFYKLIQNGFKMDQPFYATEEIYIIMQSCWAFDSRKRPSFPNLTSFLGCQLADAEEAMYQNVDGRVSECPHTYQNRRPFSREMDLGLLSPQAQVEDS

T4 sequence (P07947 whole entry): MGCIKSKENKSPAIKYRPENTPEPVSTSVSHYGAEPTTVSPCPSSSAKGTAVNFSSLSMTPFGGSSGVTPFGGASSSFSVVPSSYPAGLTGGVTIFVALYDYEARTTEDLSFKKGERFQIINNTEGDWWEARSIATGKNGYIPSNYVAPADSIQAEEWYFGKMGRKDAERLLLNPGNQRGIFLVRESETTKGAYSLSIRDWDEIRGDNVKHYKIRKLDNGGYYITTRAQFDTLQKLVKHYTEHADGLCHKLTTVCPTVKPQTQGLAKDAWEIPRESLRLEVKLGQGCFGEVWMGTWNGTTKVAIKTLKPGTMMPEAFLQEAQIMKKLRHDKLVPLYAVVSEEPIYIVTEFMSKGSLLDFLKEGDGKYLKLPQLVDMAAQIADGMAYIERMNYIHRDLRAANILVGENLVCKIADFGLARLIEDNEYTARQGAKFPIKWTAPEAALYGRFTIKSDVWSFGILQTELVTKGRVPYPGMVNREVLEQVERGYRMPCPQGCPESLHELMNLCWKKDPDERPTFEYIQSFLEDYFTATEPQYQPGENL

In the case of `COc1cc(OC)c(Cl)c(-c2ccc3c(NC(=O)c4ccc(N5CCNC(C)(C)C5)cc4)n[nH]c3n2)c1Cl` [3D185], the inhibition at 0.01 µM on PKD3(h) (10 nM) was -3%; in assay [1] (10 nM), 1%; on NEK2(h) (10 nM), 15%; on Yes(h) (10 nM), 10%; on Flt3(h) (10 nM), 10%. Besides, the inhibition at 0.1 µM was -2% on PKD3(h) (100 nM); 3% in assay [1] (100 nM); 67% at NEK2(h) (100 nM); 66% on Yes(h) (100 nM); 17% at Flt3(h) (100 nM). The inhibition at 1 µM on PKD3(h) (1000 nM) is 11%; in assay [1] (1000 nM), -5%; on NEK2(h) (1000 nM), 94%; at Yes(h) (1000 nM), 97%; at Flt3(h) (1000 nM), 27%.
